SMILES strings stand for the structures.

The target of this assay is BaF3 V617F cells (Homo sapiens, UniProt O60674, V617F, cells depend on it). Description: Proliferation assay, BaF3 V617F cells (Cell Titer-Glo). It is filed as cell-based, mouse. The following applies: proliferation for 72 hours at 37° C., stated to show ability to inhibit JAK2 activity, read-out: IC50 (the source's name). On the procedure: BaF3 V617F cells are maintained and plated in RPMI with 10% FBS. Plating density for these cells is 1×10^5 cells/mL.
The cells were resuspended in a corresponding medium at a required cell density (see above). 100μ of cell suspension was added to each well of a flat bottom 96 well white plate. The compound was serially diluted in DMSO from 5 mM in 3-fold dilutions, and then diluted 1:250 in the RPMI 1640 medium containing 5% FBS and pen/strep. 100 μL of resulting 2× compound solution was added per well in duplicate and the cells were allowed to proliferate for 72 hours at 37° C.
Proliferation was measured using Cell Titer-Glo. The substrate was thawed and allowed to come to room temperature. After removal of top 100 μL of medium from each well, 100 μL of the premixed Cell Titer-Glo reagent was added to each well. The plates were mixed on an orbital shaker for three minutes to induce lysis and incubated at ambient temperature for an additional five minutes to allow the signal to equilibrate. The Luminescence was read on the Wallac Plate Reader.
The results of the ability of the compounds of the invention to inhibit JAK2 activity, when tested in the above assay, are shown in the following Table 2 wherein the level of activity (i.e., the IC50) for each compound is indicated in Table 2. The compound numbers in Table 2 refers to the compounds disclosed herein as being prepared by the methods disclosed herein.

Sequence of BaF3 V617F cells (O60674 whole entry V617F): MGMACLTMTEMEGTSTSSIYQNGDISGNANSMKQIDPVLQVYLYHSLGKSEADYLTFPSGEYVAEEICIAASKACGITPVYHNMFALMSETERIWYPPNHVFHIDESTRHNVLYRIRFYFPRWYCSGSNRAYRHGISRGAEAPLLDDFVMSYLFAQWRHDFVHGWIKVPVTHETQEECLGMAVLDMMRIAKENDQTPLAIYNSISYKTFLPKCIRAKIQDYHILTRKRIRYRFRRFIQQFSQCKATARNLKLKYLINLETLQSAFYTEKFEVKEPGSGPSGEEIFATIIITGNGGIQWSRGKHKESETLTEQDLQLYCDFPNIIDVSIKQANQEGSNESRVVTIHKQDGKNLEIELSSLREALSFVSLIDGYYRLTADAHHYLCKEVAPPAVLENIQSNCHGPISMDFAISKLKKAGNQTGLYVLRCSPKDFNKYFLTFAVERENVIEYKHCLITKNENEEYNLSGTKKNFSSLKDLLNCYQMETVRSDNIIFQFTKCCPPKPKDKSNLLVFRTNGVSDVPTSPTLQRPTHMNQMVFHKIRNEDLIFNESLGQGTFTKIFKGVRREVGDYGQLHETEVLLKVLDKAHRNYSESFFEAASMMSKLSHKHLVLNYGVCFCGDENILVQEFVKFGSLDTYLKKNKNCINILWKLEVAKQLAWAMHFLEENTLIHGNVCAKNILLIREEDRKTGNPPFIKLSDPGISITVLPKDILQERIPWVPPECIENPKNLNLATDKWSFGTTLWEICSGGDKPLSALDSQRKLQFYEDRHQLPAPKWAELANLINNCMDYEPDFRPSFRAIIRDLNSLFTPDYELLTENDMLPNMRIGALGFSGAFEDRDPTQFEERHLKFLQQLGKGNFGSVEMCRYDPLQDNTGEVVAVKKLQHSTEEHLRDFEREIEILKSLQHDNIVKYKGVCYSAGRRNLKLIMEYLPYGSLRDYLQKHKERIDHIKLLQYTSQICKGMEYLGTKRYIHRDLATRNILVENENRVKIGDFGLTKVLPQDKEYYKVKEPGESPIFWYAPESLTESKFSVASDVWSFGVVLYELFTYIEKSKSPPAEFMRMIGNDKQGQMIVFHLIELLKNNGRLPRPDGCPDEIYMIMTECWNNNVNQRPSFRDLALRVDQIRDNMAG

In the case of `O=C1N[C@@H]2c3cc(Nc4ncc(Cl)c(Nc5ccc(CCNS(=O)(=O)C6CC6)cc5)n4)ccc3C[C@@H]2O1` [Compound 1, 5-Chloro-N4-[4-[2-[N-(cyclopropylsulfonyl)amino]ethyl]phenyl]-N2-[(3aR,8aS)-2-oxo-3,3a,8,8a-tetrahydro-2H-indeno[1,2-d]oxazol-5-yl]-2,4-pyrimidinediamine], the GI50 is 1000 to 5000 nM. Consider `O=C1N[C@H]2c3cc(Nc4ncc(Cl)c(Nc5cccc6c5CCCC6)n4)ccc3C[C@H]2O1` [Compound 21, 5-Chloro-N2-[(3aS,8aR)-2-oxo-3,3a,8,8a-tetrahydro-2H-indeno[1,2-d]oxazol-5-yl]-N4-(5,6,7,8-tetrahydronaphthalen-1-yl)2,4-pyrimidinediamine], for which the GI50 lay in the range of 500 to 1000 nM. With `CCCN1C(=O)COc2ccc(Nc3nc(Nc4ccc5c(c4)[C@H]4NC(=O)O[C@H]4C5)ncc3C)cc21` [Compound 6, 5-Methyl-N4-(4-propyl-3-oxo-2H-benz[1,4]oxazin-6-yl)-N2-[(3aR,8aS)-2-oxo-3,3a,8,8a-tetrahydro-2H-indeno[1,2-d]oxazol-5-yl]-2,4-pyrimidinediamine], the GI50 lay within 250 to 500 nM. For the molecule `CCN1C(=O)C(C)(C)Oc2ccc(Nc3nc(Nc4ccc5c(c4)[C@@H]4NC(=O)O[C@@H]4C5)ncc3Cl)cc21` [Compound 12, 5-Chloro-N4-(2,2-dimethyl-4-ethyl-3-oxo-benz[1,4]oxazin-6-yl)-N2-[(3aS,8aR)-2-oxo-3,3a,8,8a-tetrahydro-2H-indeno[1,2-d]oxazol-5-yl]-2,4-pyrimidinediamine], the GI50 is 250 to 500 nM. As for `Cc1cnc(Nc2ccc3c(c2)[C@H]2NC(=O)O[C@H]2C3)nc1Nc1ccc2c(c1)N(C)C(=O)C(C)(C)S2` [Compound 7, 5-Methyl-N2-[(3aR,8aS)-2-oxo-3,3a,8,8a-tetrahydro-2H-indeno[1,2-d]oxazol-5-yl]-N4-(2,2,4-trimethyl-3-oxo-benz[1,4]thiazin-6-yl)-2,4-pyrimidinediamine], the GI50 is less than 250 nM. Regarding `O=C1N[C@@H]2c3cc(Nc4ncc(Cl)c(Nc5cccc6c5CCCC6)n4)ccc3C[C@@H]2O1` [Compound 36, 5-Chloro-N2-[(3aR,8aS)-2-oxo-3,3a,8,8a-tetrahydro-2H-indeno[1,2-d]oxazol-5-yl]-N4-(5,6,7,8-tetrahydronaphthalen-1-yl)2,4-pyrimidinediamine], the GI50 is 250 to 500 nM. The result for `Cc1cnc(Nc2ccc3c(c2)[C@H]2NC(=O)O[C@H]2C3)nc1Nc1ccc2c(c1)N(C)C(=O)C(C)(C)O2` [Compound 2, 5-Methyl-N2-[(3aR,8aS)-2-oxo-3,3a,8,8a-tetrahydro-2H-indeno[1,2-d]oxazol-5-yl]-N4-(2,2,4-trimethyl-3-oxo-benz[1,4]oxazin-6-yl)-2,4-pyrimidinediamine] reads less than 250 nM; that for `Cc1cnc(Nc2ccc3c(c2)[C@@H]2NC(=O)O[C@@H]2C3)nc1Nc1ccc(CNS(=O)(=O)C2CC2)cc1` [Compound 15, N4-[4-[[N-(Cyclopropylsulfonyl)amino]methyl]phenyl]-5-methyl-N2-[(3aS,8aR)-2-oxo-3,3a,8,8a-tetrahydro-2H-indeno[1,2-d]oxazol-5-yl]-2,4-pyrimidinediamine], 1000 to 5000 nM; that for `CC(C)(C)NS(=O)(=O)c1cccc(Nc2nc(Nc3ccc4c(c3)[C@@H]3NC(=O)O[C@@H]3C4)ncc2Cl)c1` [Compound 14, 5-Chloro-N4-[3-[[(1,1-dimethylethyl)amino]sulfonyl]phenyl]-N2-[(3aS,8aR)-2-oxo-3,3a,8,8a-tetrahydro-2H-indeno[1,2-d]oxazol-5-yl]-2,4-pyrimidinediamine], 500 to 1000 nM. On to `Cc1cnc(Nc2ccc3c(c2)[C@@H]2NC(=O)O[C@@H]2C3)nc1Nc1ccc(OCc2cccnc2)cc1` [Compound 32, 5-Methyl-N2-[(3aS,8aR)-2-oxo-3,3a,8,8a-tetrahydro-2H-indeno[1,2-d]oxazol-5-yl]-N4-[4-(pyridin-3-ylmethoxy)phenyl]-2,4-pyrimidinediamine], for which the GI50 fell in the range of 250 to 500 nM.

Values taken from patent US8846908B2, “Tricyclic carbamate JAK inhibitors” (Rigel Pharmaceuticals, Inc., priority 2008, dated 2014).
